Experiments:
RT4 (Bladder Carcinoma) [1] = assay: Bliss excess, mean over the matrix (fraction); higher = more synergy
In short: (§1)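 Cell lines in DMEM/F12 or RPMI with 10% FBS were plated in 1536-well plates, held 24 hours at 37°C, 5% CO2, then given two-drug dose matrices for 72 hours (DMSO typically 0.2%). Viability was read by CellTiter-Glo 2.0 luminescence and scaled as inhibition from 0 (vehicle wells) to 1 (blank wells). Combination Emax is the second-highest inhibition in the matrix; Bliss excess is observed combination effect minus expected EA + EB − EA·EB, EA and EB being single-agent effects.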

[2] = tested on: HTC-C3 (Thyroid Gland Carcinoma); assay: as above
In short: as §1

[3] = tested on: Calu-6 (Non-Small Cell Lung Carcinoma); assay: combination Emax (second highest fraction inhibited in the dose matrix, 72 h); higher = more inhibition; extreme values may be limits of the assay
In short: as §1

[4] = tested on: NCI-H1155 (Non-Small Cell Lung Carcinoma); assay: as above
In short: as §1

[5] = tested on: LAMA-84 (Chronic Myelogenous Leukemia); assay: as above
In short: as §1

[6] = tested on: CML-T1 (Chronic Myelogenous Leukemia); assay: as above
In short: as §1

[7] = tested on: JHH-1 (Hepatocellular Carcinoma); assay: as above
In short: as §1

[8] = tested on: OCI-AML5 (Acute Myeloid Leukemia); assay: as above
In short: as §1

RT4 (Bladder Carcinoma) [9] = assay: as above
In short: as §1

[10] = tested on: OV-90 (Ovarian Carcinoma); assay: as above
In short: as §1

[11] = tested on: PC-14 (Lung Adenocarcinoma); assay: as above
In short: as §1

[12] = tested on: NCI-H196 (Small Cell Lung Carcinoma); assay: as above
In short: as §1

[13] = tested on: BALL-1 (B-Lymphoblastic Leukemia); assay: as above
In short: as §1

CHL-1 (Melanoma) = assay: as above
In short: as §1

[14] = tested on: AN3-CA (Endometrial Carcinoma); assay: as above
In short: as §1

[15] = tested on: NCI-H1755 (Lung Adenocarcinoma); assay: as above
In short: as §1

[16] = tested on: RL95-2 (Endometrial Carcinoma); assay: as above
In short: as §1

[17] = tested on: Becker (Low Grade Glioma); assay: as above
In short: as §1

[18] = tested on: HTC-C3 (Thyroid Gland Carcinoma); assay: as above
In short: as §1

[19] = tested on: LOUCY (T-Lymphoblastic Leukemia); assay: as above
In short: as §1
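Wherever Bliss excess, mean over the matrix is given: after 72 h of two-drug dosing.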

SMILES | Bliss excess (RT4 (Bladder Carcinoma) [1]) | Bliss excess [2] | combination Emax [3] | combination Emax [4] | combination Emax [5] | combination Emax [6] | combination Emax [7] | combination Emax [8] | combination Emax (RT4 (Bladder Carcinoma) [9]) | combination Emax [10] | combination Emax [11] | combination Emax [12] | combination Emax [13] | combination Emax (CHL-1 (Melanoma)) | combination Emax [14] | combination Emax [15] | combination Emax [16] | combination Emax [17] | combination Emax [18] | combination Emax [19]
COc1cc2ncnc(Nc3ccc(F)c(Cl)c3)c2cc1OCCCN1CCOCC1 [Gefitinib] + CC(C)n1c(=O)n(C)c2cnc3cc(F)c(-c4ccc(OCCCN5CCCCC5)nc4)cc3c21 [AZD1390] (first compound max 10 µM, 7x7, partner max 0.3 µM) | -0.176 | -0.0976 | 0.128 | 0.0815 | 0.315 | 0.148 | 0.247 | 0.145 | 0.128 | 0.12 | 0.752 | 0.0162 | 0.279 | 0.409 | 0.01 | 0.264 | 0.0606 | 0.126 | 0.0317 | 0.296
CS(=O)(=O)CCNCc1ccc(-c2ccc3ncnc(Nc4ccc(OCc5cccc(F)c5)c(Cl)c4)c3c2)o1 [Lapatinib] + C[C@@H](Oc1cc(-c2cnn(C3CCNCC3)c2)cnc1N)c1c(Cl)ccc(F)c1Cl [Crizotinib] (first compound max 10 µM, 7x7, partner max 10 µM) | -0.0511 | 0.0215 | 0.815 | 0.61 | 1 | 0.965 | 0.952 | 0.988 | 0.916 | 0.578 | 1 | 0.19 | 0.913 | 0.757 | 0.874 | 0.957 | 0.934 | 0.725 | 0.956 | 0.822
CC(=O)c1c(C)c2cnc(Nc3ccc(N4CCNCC4)cn3)nc2n(C2CCCC2)c1=O [Palbociclib] + CC1(C)CCC(CN2CCN(c3ccc(C(=O)NS(=O)(=O)c4ccc(NCC5CCOCC5)c([N+](=O)[O-])c4)c(Oc4cnc5[nH]ccc5c4)c3)CC2)=C(c2ccc(Cl)cc2)C1 [Venetoclax] (first compound max 10 µM, 7x7, partner max 1 µM) | 0.0032 | -0.0214 | 0.353 | 0.241 | 0.496 | 0.932 | 0.138 | 0.837 | 0.203 | 0.0192 | 0.204 | 0.0487 | 1 | 0.0898 | 0.255 | 0.477 | 0.226 | 0.249 | 0.189 | 1
CC(=O)c1c(C)c2cnc(Nc3ccc(N4CCNCC4)cn3)nc2n(C2CCCC2)c1=O [Palbociclib] + Cc1c2c(nn1C)CSCc1cc(n(C)n1)CSc1cc(c3ccccc3c1)OCCCc1c(C(=O)O)n(C)c3c-2c(Cl)ccc13 [AZD5991] (first compound max 10 µM, 7x7, partner max 1 µM) | -0.0244 | 0.0082 | 0.33 | 0.237 | 0.663 | 0.924 | 0.289 | 0.517 | 0.355 | 0.158 | 0.279 | 0.126 | 0.777 | 0.691 | 0.886 | 0.524 | 0.939 | 0.428 | 0.248 | 0.553
CC(=O)c1c(C)c2cnc(Nc3ccc(N4CCNCC4)cn3)nc2n(C2CCCC2)c1=O [Palbociclib] + Cn1cnc2c(F)c(Nc3ccc(Br)cc3Cl)c(C(=O)NOCCO)cc21 [Selumetinib] (first compound max 10 µM, 7x7, partner max 10 µM) | 0.0209 | 0.0564 | 0.707 | 0.21 | 0.945 | 0.926 | 0.201 | 0.833 | 0.45 | 0.636 | 0.434 | 0.0806 | 0.458 | 0.101 | 0.296 | 0.543 | 0.561 | 0.368 | 0.728 | 0.278
COc1cccc(OCCCN)c1-c1cc(Nc2cnc(C#N)cn2)n[nH]1 [Prexasertib] + C=CCn1c(=O)c2cnc(Nc3ccc(N4CCN(C)CC4)cc3)nc2n1-c1cccc(C(C)(C)O)n1 [AZD1775] (first compound max 1 µM, partner max 1 µM) | 0.128 | 0.145 | 0.806 | 0.963 | 0.992 | 0.99 | 0.656 | 1 | 0.742 | 0.628 | 0.932 | 0.723 | 0.997 | 0.845 | 0.954 | 0.926 | 0.957 | 0.733 | 0.911 | 1
COc1cccc(OCCCN)c1-c1cc(Nc2cnc(C#N)cn2)n[nH]1 [Prexasertib] + CCc1c2c(nc3ccc(O)cc13)-c1cc3c(c(=O)n1C2)COC(=O)[C@]3(O)CC [SN-38] (first compound max 1 µM, 7x7, partner max 0.3 µM) | -0.0055 | 0.0844 | 0.862 | 0.993 | 1 | 1 | 0.75 | 1 | 0.894 | 0.573 | 0.894 | 0.659 | 1 | 0.877 | 0.946 | 0.952 | 0.979 | 0.816 | 0.966 | 1
COc1cccc(OCCCN)c1-c1cc(Nc2cnc(C#N)cn2)n[nH]1 [Prexasertib] + CN(C)CCCOc1ccc(-c2ccc3ncc4c(c3c2)n(C2CCOCC2)c(=O)n4C)cn1 [AZD0156] (first compound max 1 µM, 7x7, partner max 1 µM) | 0.0482 | -0.029 | 0.745 | 0.885 | 0.988 | 0.987 | 0.677 | 1 | 0.304 | 0.532 | 0.85 | 0.606 | 0.999 | 0.814 | 0.81 | 0.936 | 0.888 | 0.711 | 0.768 | 1
COc1cccc(OCCCN)c1-c1cc(Nc2cnc(C#N)cn2)n[nH]1 [Prexasertib] + C[C@@H]1COCCN1C2=NC(=NC(=C2)C3(CC3)[S@](=N)(=O)C)C4=C5C=CNC5=NC=C4 [AZD6738] (first compound max 1 µM, 7x7, partner max 10 µM) | 0.0645 | -0.0034 | 0.772 | 0.93 | 0.99 | 0.97 | 0.579 | 0.988 | 0.555 | 0.548 | 0.879 | 0.566 | 0.998 | 0.884 | 0.821 | 0.912 | 0.898 | 0.733 | 0.842 | 1
COc1cccc(OCCCN)c1-c1cc(Nc2cnc(C#N)cn2)n[nH]1 [Prexasertib] + Cc1cc2ncnn2cc1Nc1ncc2c(n1)n(C1CCOCC1)c(=O)n2C [AZD7648] (first compound max 1 µM, 7x7, partner max 10 µM) | -0.0045 | -0.018 | 0.796 | 0.92 | 0.99 | 0.98 | 0.559 | 0.988 | 0.404 | 0.548 | 0.861 | 0.551 | 0.999 | 0.838 | 0.843 | 0.918 | 0.893 | 0.707 | 0.843 | 1
COc1cccc(OCCCN)c1-c1cc(Nc2cnc(C#N)cn2)n[nH]1 [Prexasertib] + O=C(c1cc(Cc2n[nH]c(=O)c3ccccc23)ccc1F)N1CCN(C(=O)C2CC2)CC1 [Olaparib] (first compound max 1 µM, 7x7, partner max 10 µM) | 0.0044 | -0.0615 | 0.698 | 0.927 | 0.973 | 0.978 | 0.582 | 0.991 | 0.237 | 0.558 | 0.848 | 0.556 | 0.994 | 0.838 | 0.81 | 0.907 | 0.882 | 0.704 | 0.751 | 1
COc1cc2c(cc1OCCCCCOc1cc3c(cc1OC)C(=O)N1C=C(C)C[C@H]1C=N3)N=C[C@@H]1CC(C)=CN1C2=O [SG3199] + O=C(c1cc(Cc2n[nH]c(=O)c3ccccc23)ccc1F)N1CCN(C(=O)C2CC2)CC1 [Olaparib] (first compound max 0.001 µM, 7x7, partner max 10 µM) | -0.0164 | -0.013 | 0.186 | 0.263 | 0.226 | 0.738 | 0.136 | 0.182 | 0.169 | 0.098 | 0.179 | 0.106 | 0.845 | 0.092 | 0.138 | 0.202 | 0.264 | 0.0512 | 0.246 | 0.12
CCc1c2c(nc3ccc(O)cc13)-c1cc3c(c(=O)n1C2)COC(=O)[C@]3(O)CC [SN-38] + CN(C)CCCOc1ccc(-c2ccc3ncc4c(c3c2)n(C2CCOCC2)c(=O)n4C)cn1 [AZD0156] (first compound max 0.3 µM, 7x7, partner max 1 µM) | -0.0184 | 0.105 | 0.762 | 0.962 | 0.94 | 1 | 0.316 | 0.998 | 0.819 | 0.457 | 0.592 | 0.0732 | 1 | 0.567 | 0.325 | 0.752 | 0.424 | 0.847 | 0.764 | 0.759
